Source: the kinase profiling compilation of Christmann-Franck et al. (2016)

Assays:
Assay in all cases: KINOMEscan competition binding
Conditions in all cases: compound 10.0 µM
CAMK2B (human) = CAMK2B (human) (UniProt Q13554)
OXSR1 (human) = OXSR1 (human) (UniProt O95747)
CSF1R (human) = CSF1R (human) (UniProt P07333)
NEK9 (human) = NEK9 (human) (UniProt Q8TD19)
PRPF4B (human) = PRPF4B (human) (UniProt Q13523)
RIOK2 (human) = RIOK2 (human) (UniProt Q9BVS4)
CSNK1E (human) = CSNK1E (human) (UniProt P49674)
SNRK (human) = SNRK (human) (UniProt Q9NRH2)
RPS6KA5 KD2 (human) = RPS6KA5 KD2 (human) (UniProt O75582)
CSNK1G2 (human) = CSNK1G2 (human) (UniProt P78368)
MAP4K4 (human) = MAP4K4 (human) (UniProt O95819)
AKT2 (human) = AKT2 (human) (UniProt P31751)
PKN2 (human) = PKN2 (human) (UniProt Q16513)
STK32C (human) = STK32C (human) (UniProt Q86UX6)
EPHB4 (human) = EPHB4 (human) (UniProt P54760)
FER (human) = FER (human) (UniProt P16591)
PIM3 (human) = PIM3 (human) (UniProt Q86V86)
NIM1 (human) = NIM1 (human) (UniProt Q8IY84)
EPHA6 (human) = EPHA6 (human) (UniProt Q9UF33)
BRSK1 (human) = BRSK1 (human) (UniProt Q8TDC3)
TIE1 (human) = TIE1 (human) (UniProt P35590)
MINK1 (human) = MINK1 (human) (UniProt Q8N4C8)
ZAP70 (human) = ZAP70 (human) (UniProt P43403)
SIK2 (human) = SIK2 (human) (UniProt Q9H0K1)
TNK1 (human) = TNK1 (human) (UniProt Q13470)
STK25 (human) = STK25 (human) (UniProt O00506)
LATS2 (human) = LATS2 (human) (UniProt Q9NRM7)
ERBB2 (human) = ERBB2 (human) (UniProt P04626)
STK32A (human) = STK32A (human) (UniProt Q8WU08)
PIK3C2G (human) = PIK3C2G (human) (UniProt O75747)
PIP4K2C (human) = PIP4K2C (human) (UniProt Q8TBX8)
KDR (human) = KDR (human) (UniProt P35968)
SRPK1 (human) = SRPK1 (human) (UniProt Q96SB4)
ADCK4 (human) = ADCK4 (human) (UniProt Q96D53)
SLK (human) = SLK (human) (UniProt Q9H2G2)
DYRK2 (human) = DYRK2 (human) (UniProt Q92630)
CDK9 (human) = CDK9 (human) (UniProt P50750)
PIK3CG (human) = PIK3CG (human) (UniProt P48736)
RPS6KA1 KD1 (human) = RPS6KA1 KD1 (human) (UniProt Q15418)
CDKL2 (human) = CDKL2 (human) (UniProt Q92772)

BRSK1 (human), sequence (Q8TDC3 whole entry, looked up): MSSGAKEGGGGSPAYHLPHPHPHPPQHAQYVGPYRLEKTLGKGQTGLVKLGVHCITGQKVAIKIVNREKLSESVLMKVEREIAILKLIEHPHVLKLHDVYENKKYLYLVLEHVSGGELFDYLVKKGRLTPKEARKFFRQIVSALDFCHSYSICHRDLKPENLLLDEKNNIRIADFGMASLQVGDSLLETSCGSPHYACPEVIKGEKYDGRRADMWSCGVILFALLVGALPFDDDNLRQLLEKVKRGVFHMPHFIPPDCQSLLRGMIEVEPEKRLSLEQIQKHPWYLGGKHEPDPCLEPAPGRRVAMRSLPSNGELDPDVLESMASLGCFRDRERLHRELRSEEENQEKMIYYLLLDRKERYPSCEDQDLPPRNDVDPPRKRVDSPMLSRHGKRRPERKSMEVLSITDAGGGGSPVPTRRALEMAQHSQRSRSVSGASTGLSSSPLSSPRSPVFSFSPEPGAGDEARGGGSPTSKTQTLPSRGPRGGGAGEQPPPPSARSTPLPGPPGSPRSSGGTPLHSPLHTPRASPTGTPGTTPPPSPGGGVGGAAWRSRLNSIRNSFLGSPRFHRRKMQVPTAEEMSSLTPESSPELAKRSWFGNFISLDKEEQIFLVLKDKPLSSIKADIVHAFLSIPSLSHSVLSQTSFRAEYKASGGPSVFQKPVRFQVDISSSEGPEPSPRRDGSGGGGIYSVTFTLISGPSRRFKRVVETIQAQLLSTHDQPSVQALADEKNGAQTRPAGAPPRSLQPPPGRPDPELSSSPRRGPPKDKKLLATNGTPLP
MINK1 (human), sequence (Q8N4C8 whole entry, looked up): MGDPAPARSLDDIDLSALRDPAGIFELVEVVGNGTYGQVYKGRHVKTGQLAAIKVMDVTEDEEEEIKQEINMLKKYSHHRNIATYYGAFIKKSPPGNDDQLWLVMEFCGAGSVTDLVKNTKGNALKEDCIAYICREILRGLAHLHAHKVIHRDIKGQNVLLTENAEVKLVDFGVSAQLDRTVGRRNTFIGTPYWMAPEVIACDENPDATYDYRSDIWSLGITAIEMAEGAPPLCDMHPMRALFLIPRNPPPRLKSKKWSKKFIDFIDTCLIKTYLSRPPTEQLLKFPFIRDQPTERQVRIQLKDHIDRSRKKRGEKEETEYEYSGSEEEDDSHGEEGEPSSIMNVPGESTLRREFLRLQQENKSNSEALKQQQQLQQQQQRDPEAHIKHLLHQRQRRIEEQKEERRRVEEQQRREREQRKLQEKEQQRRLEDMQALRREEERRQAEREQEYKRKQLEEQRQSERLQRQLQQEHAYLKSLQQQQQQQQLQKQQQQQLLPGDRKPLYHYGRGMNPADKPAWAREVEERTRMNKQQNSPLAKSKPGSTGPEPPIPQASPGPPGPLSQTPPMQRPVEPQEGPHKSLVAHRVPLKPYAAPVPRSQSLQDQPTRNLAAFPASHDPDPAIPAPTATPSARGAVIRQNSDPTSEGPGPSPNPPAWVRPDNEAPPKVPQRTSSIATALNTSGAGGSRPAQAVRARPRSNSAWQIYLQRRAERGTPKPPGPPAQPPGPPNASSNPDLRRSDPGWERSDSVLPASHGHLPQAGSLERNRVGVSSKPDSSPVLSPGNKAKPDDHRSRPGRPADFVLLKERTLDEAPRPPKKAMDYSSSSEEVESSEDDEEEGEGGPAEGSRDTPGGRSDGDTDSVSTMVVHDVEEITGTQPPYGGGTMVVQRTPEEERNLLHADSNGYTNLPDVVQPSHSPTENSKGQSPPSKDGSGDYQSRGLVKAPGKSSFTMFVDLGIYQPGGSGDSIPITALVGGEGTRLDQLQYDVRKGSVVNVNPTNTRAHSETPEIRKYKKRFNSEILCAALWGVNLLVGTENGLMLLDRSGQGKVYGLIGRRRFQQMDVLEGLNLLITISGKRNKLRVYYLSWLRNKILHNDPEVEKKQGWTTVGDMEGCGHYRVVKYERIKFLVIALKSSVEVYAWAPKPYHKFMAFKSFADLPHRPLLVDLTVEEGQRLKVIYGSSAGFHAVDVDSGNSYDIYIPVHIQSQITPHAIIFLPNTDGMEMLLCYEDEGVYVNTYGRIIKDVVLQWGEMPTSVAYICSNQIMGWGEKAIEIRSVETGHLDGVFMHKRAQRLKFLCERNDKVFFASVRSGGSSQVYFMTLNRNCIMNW
NIM1 (human), sequence (Q8IY84 whole entry, looked up): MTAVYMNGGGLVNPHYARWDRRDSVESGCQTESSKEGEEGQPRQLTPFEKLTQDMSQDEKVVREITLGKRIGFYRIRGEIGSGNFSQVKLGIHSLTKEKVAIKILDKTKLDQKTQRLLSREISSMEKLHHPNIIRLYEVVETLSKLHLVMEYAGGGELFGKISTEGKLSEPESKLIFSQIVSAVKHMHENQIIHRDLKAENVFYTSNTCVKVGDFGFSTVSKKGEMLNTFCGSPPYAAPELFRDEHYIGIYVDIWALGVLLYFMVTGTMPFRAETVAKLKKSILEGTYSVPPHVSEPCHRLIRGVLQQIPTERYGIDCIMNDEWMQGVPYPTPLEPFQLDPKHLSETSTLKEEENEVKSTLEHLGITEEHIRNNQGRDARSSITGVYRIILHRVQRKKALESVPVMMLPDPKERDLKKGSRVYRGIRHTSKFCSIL
ADCK4 (human), sequence (Q96D53 whole entry, looked up): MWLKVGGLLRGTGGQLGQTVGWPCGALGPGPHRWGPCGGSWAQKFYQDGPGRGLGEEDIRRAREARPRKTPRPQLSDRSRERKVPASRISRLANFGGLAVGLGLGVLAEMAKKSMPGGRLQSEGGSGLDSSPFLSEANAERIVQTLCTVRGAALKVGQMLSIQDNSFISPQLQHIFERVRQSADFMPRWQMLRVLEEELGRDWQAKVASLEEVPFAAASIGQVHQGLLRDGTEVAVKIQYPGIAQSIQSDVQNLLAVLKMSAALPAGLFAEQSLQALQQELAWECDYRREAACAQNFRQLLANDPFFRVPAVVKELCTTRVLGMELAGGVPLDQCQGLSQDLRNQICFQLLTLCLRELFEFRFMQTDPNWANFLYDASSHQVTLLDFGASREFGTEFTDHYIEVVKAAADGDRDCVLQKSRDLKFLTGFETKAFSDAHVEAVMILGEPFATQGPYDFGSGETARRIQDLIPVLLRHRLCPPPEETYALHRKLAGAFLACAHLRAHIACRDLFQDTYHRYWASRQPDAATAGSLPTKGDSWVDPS
RPS6KA1 KD1 (human), sequence (Q15418 whole entry, looked up): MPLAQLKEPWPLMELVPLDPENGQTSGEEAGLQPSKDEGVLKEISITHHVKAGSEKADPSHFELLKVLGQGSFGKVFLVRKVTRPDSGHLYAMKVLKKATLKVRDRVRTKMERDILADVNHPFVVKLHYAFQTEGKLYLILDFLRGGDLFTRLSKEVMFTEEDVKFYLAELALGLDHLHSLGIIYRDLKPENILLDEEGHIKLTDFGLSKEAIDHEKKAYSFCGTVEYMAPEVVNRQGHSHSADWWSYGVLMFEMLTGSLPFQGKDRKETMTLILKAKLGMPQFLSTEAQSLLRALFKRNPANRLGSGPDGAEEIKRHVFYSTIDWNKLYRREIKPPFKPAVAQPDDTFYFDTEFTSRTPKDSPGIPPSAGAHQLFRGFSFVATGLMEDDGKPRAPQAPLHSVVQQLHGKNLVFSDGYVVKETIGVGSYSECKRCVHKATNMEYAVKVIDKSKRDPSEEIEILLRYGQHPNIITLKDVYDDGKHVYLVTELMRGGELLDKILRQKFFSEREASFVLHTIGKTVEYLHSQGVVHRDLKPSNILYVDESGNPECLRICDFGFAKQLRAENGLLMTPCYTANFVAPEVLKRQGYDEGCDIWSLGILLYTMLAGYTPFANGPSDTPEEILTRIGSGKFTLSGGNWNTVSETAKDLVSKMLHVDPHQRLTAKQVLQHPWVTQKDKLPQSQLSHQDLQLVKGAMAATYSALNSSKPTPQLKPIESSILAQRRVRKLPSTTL
SLK (human), sequence (Q9H2G2 whole entry, looked up): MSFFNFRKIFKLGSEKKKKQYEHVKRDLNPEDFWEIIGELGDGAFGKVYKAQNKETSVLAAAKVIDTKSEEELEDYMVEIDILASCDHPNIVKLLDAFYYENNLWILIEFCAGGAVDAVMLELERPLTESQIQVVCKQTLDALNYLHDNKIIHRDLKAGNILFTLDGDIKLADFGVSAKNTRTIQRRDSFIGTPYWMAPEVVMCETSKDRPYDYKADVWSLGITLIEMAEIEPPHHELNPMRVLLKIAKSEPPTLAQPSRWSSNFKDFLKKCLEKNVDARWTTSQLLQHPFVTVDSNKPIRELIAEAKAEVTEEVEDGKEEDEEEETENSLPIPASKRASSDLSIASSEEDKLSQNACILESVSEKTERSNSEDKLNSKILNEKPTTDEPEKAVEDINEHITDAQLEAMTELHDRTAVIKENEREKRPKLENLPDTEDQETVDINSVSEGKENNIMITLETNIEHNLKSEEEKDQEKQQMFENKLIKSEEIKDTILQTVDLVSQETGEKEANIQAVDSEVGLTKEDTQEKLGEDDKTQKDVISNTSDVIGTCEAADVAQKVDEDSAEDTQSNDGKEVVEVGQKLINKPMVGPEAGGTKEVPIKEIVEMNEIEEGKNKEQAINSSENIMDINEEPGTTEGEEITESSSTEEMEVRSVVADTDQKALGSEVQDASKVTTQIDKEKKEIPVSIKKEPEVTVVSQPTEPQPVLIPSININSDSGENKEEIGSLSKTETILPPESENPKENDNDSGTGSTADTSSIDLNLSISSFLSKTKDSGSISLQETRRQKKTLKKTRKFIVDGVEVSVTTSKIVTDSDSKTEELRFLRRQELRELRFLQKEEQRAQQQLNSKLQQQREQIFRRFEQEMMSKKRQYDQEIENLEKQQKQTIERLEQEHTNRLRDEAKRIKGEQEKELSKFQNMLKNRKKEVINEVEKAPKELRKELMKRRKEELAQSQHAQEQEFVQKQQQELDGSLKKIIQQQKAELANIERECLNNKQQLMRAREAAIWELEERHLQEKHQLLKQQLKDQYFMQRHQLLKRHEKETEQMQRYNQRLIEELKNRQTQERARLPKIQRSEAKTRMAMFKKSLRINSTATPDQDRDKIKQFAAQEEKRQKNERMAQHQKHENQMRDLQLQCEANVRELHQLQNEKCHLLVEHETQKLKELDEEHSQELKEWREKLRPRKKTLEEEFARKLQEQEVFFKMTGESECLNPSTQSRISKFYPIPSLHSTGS

SMILES	kinase still bound, per cent of control (CAMK2B (human)) [%]	kinase still bound, per cent of control (OXSR1 (human)) [%]	kinase still bound, per cent of control (CSF1R (human)) [%]	kinase still bound, per cent of control (NEK9 (human)) [%]	kinase still bound, per cent of control (PRPF4B (human)) [%]	kinase still bound, per cent of control (RIOK2 (human)) [%]	kinase still bound, per cent of control (CSNK1E (human)) [%]	kinase still bound, per cent of control (SNRK (human)) [%]	kinase still bound, per cent of control (RPS6KA5 KD2 (human)) [%]	kinase still bound, per cent of control (CSNK1G2 (human)) [%]	kinase still bound, per cent of control (MAP4K4 (human)) [%]	kinase still bound, per cent of control (AKT2 (human)) [%]	kinase still bound, per cent of control (PKN2 (human)) [%]	kinase still bound, per cent of control (STK32C (human)) [%]	kinase still bound, per cent of control (EPHB4 (human)) [%]	kinase still bound, per cent of control (FER (human)) [%]	kinase still bound, per cent of control (PIM3 (human)) [%]	kinase still bound, per cent of control (NIM1 (human)) [%]	kinase still bound, per cent of control (EPHA6 (human)) [%]	kinase still bound, per cent of control (BRSK1 (human)) [%]	further results
N#C/C(=C1/Nc2ccccc2S1)c1ccnc(NCCc2cccnc2)n1	49	62	98	90	79	2.4	60	2.7	72	77	93	89	100	99	100	100	2.3	100	99	85	kinase still bound, per cent of control (TIE1 (human)): 100%; kinase still bound, per cent of control (MINK1 (human)): 45%; kinase still bound, per cent of control (ZAP70 (human)): 100%; kinase still bound, per cent of control (SIK2 (human)): 82%; kinase still bound, per cent of control (TNK1 (human)): 46%; kinase still bound, per cent of control (STK25 (human)): 60%; kinase still bound, per cent of control (LATS2 (human)): 92%; kinase still bound, per cent of control (ERBB2 (human)): 8.5%; kinase still bound, per cent of control (STK32A (human)): 100%; kinase still bound, per cent of control (PIK3C2G (human)): 8.8%; kinase still bound, per cent of control (PIP4K2C (human)): 3.7%; kinase still bound, per cent of control (KDR (human)): 100%; kinase still bound, per cent of control (SRPK1 (human)): 70%; kinase still bound, per cent of control (ADCK4 (human)): 45%; kinase still bound, per cent of control (SLK (human)): 100%; kinase still bound, per cent of control (DYRK2 (human)): 0.7%; kinase still bound, per cent of control (CDK9 (human)): 60%; kinase still bound, per cent of control (PIK3CG (human)): 50%; kinase still bound, per cent of control (RPS6KA1 KD1 (human)): 83%; kinase still bound, per cent of control (CDKL2 (human)): 98%
CNC(=O)Nc1ccc(-c2nc(N3CC4CCC(C3)O4)c3cnn(C4CCC5(CC4)OCCO5)c3n2)cc1	100	100	100	100	70	90	39	100	90	95	85	100	83	90	100	100	100	100	98	100	kinase still bound, per cent of control (TIE1 (human)): 98%; kinase still bound, per cent of control (MINK1 (human)): 100%; kinase still bound, per cent of control (ZAP70 (human)): 83%; kinase still bound, per cent of control (SIK2 (human)): 97%; kinase still bound, per cent of control (TNK1 (human)): 78%; kinase still bound, per cent of control (STK25 (human)): 91%; kinase still bound, per cent of control (LATS2 (human)): 76%; kinase still bound, per cent of control (ERBB2 (human)): 88%; kinase still bound, per cent of control (STK32A (human)): 99%; kinase still bound, per cent of control (PIK3C2G (human)): 22%; kinase still bound, per cent of control (PIP4K2C (human)): 100%; kinase still bound, per cent of control (KDR (human)): 76%; kinase still bound, per cent of control (SRPK1 (human)): 100%; kinase still bound, per cent of control (ADCK4 (human)): 100%; kinase still bound, per cent of control (SLK (human)): 100%; kinase still bound, per cent of control (DYRK2 (human)): 90%; kinase still bound, per cent of control (CDK9 (human)): 100%; kinase still bound, per cent of control (PIK3CG (human)): 72%; kinase still bound, per cent of control (RPS6KA1 KD1 (human)): 100%; kinase still bound, per cent of control (CDKL2 (human)): 100%
CC1=C(C(=O)Nc2cc3cn[nH]c3cc2F)C(c2ccc(C(F)(F)F)cc2)CC(=O)N1 (stereo not given)	94	92	68	89	86	86	79	100	87	100	78	64	52	48	88	100	92	86	95	93	kinase still bound, per cent of control (TIE1 (human)): 75%; kinase still bound, per cent of control (MINK1 (human)): 71%; kinase still bound, per cent of control (ZAP70 (human)): 100%; kinase still bound, per cent of control (SIK2 (human)): 99%; kinase still bound, per cent of control (TNK1 (human)): 33%; kinase still bound, per cent of control (STK25 (human)): 64%; kinase still bound, per cent of control (LATS2 (human)): 10%; kinase still bound, per cent of control (ERBB2 (human)): 71%; kinase still bound, per cent of control (STK32A (human)): 52%; kinase still bound, per cent of control (PIK3C2G (human)): 52%; kinase still bound, per cent of control (PIP4K2C (human)): 98%; kinase still bound, per cent of control (KDR (human)): 88%; kinase still bound, per cent of control (SRPK1 (human)): 100%; kinase still bound, per cent of control (ADCK4 (human)): 94%; kinase still bound, per cent of control (SLK (human)): 100%; kinase still bound, per cent of control (DYRK2 (human)): 100%; kinase still bound, per cent of control (CDK9 (human)): 96%; kinase still bound, per cent of control (PIK3CG (human)): 88%; kinase still bound, per cent of control (RPS6KA1 KD1 (human)): 72%; kinase still bound, per cent of control (CDKL2 (human)): 94%
